Measurements taken from ChEMBL document CHEMBL4257221, “Peptides comprising non-natural amino acids and methods of making and using the same” (2016).
Numbered stars: 1 amine (or outer) side, 2 acyl side, 3 side chain; on linkers, the order of the positions; unused ones are H or OH. Square brackets hold non-standard residues; d marks the D form. Peptide text beside a SMILES is read from it. ξ: configuration not given here. X1 = O=C([C@H]1CCC[C@@H]1N[*:1])[*:2]; X2 = O=C([C@H]1CNC[C@@H]1N[*:1])[*:2]; ξβ3hY = NC(CC(=O)O)Cc1ccc(O)cc1; β3hN = NC(=O)C[C@H](N)CC(=O)O; ξβ3hR = N=C(N)NCCCC(N)CC(=O)O; β3hV = CC(C)[C@H](N)CC(=O)O; ξβ3hQ = NC(=O)CCC(N)CC(=O)O; ξβ3hD = NC(CC(=O)O)CC(=O)O; ξβ3hL = CC(C)CC(N)CC(=O)O; ξβ3hK = NCCCCC(N)CC(=O)O; ξβ3hT = CC(O)C(N)CC(=O)O; ξβ3hV = CC(C)C(N)CC(=O)O; βAla = NCCC(=O)O

Assays:
[1] = target: T1, Vasoactive intestinal polypeptide receptor 1 (Homo sapiens, UniProt P32241); test: Agonist activity at human VIPR1 expressed in CHOK1 cells assessed as intracellular cAMP accumulation after 60 mins by PathHunter assay; format: functional, cell-based
T1 sequence (P32241 whole entry): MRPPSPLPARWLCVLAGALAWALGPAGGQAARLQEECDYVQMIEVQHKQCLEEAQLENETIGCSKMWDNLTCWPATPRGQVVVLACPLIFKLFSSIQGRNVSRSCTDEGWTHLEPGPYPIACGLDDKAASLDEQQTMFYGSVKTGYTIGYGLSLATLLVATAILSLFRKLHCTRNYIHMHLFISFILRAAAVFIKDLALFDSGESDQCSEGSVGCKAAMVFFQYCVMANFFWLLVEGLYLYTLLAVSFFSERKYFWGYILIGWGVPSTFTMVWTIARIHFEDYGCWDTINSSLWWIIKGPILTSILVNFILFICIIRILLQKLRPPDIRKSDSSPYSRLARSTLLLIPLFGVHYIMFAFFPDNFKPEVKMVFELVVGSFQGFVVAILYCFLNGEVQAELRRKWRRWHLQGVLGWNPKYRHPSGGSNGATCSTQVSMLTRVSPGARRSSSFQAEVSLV

[2] = target: T2, Vasoactive intestinal polypeptide receptor 2 (Homo sapiens, UniProt P41587); test: Agonist activity at human VIPR2 expressed in CHOK1 cells assessed as intracellular cAMP accumulation after 60 mins by PathHunter assay; format: functional, cell-based
T2 sequence (P41587 whole entry): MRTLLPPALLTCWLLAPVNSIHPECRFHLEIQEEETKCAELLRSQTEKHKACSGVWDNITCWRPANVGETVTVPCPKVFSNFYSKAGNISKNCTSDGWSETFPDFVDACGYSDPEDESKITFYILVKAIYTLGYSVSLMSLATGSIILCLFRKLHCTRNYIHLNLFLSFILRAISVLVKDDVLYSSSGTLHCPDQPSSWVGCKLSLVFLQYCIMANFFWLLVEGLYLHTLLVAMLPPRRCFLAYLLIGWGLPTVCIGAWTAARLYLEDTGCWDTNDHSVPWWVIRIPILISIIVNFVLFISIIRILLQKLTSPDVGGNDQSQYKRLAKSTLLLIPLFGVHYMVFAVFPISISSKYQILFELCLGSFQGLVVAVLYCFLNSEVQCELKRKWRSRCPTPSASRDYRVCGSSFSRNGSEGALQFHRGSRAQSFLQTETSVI

| SMILES | EC50 [1] | EC50 [2] |
| --- | --- | --- |
| CC(=O)N[C@@H](Cc1cnc[nH]1)C(=O)N[C@H]1CCC[C@@H]1C(=O)N[C@@H](CC(=O)O)C(=O)N[C@@H](C)C(=O)N[C@H]1CCC[C@@H]1C(=O)N[C@@H](Cc1ccccc1)C(=O)N[C@H](C(=O)N[C@@H](CCC(=O)O)C(=O)N[C@H]1CCC[C@@H]1C(=O)NC(CC(=O)N[C@H](C(=O)N[C@@H](CCCCN)C(=O)N[C@@H](CC(C)C)C(=O)N[C@@H](CCCNC(=N)N)C(=O)NC(CCCCN)CC(=O)N[C@@H](CCC(N)=O)C(=O)N[C@@H](CC(C)C)C(=O)N[C@@H](C)C(=O)N[C@@H](C)C(=O)N[C@H]1CNC[C@@H]1C(=O)N[C@@H](CCCCN)C(=O)N[C@@H](Cc1ccc(O)cc1)C(=O)N[C@H]1CCC[C@@H]1C(=O)N[C@@H](CC(N)=O)C(=O)N[C@@H](CC(=O)O)C(=O)N[C@@H](CC(C)C)C(=O)NC(CCCCN)CC(=O)N[C@@H](CCCCN)C(=O)NCC(=O)NCCC(=O)N[C@H](C(=O)O)[C@@H](C)O)[C@@H](C)O)Cc1ccc(O)cc1)[C@@H](C)O (stereo partly drawn) (Ac-H[X1]DA[X1]FTE[X1][ξβ3hY]TKLR[ξβ3hK]QLAA[X2]KY[X1]NDL[ξβ3hK]KG[βAla]T-OH) | 461 nM | > 1000 nM |
| CC(=O)N[C@@H](Cc1cnc[nH]1)C(=O)N[C@H]1CCC[C@@H]1C(=O)N[C@@H](CC(=O)O)C(=O)N[C@@H](C)C(=O)NC(CC(=O)N[C@@H](Cc1ccccc1)C(=O)N[C@H](C(=O)N[C@@H](CCC(=O)O)C(=O)N[C@@H](CC(N)=O)CC(=O)N[C@@H](Cc1ccc(O)cc1)C(=O)N[C@H](C(=O)N[C@@H](CCCCN)C(=O)N[C@@H](CC(C)C)C(=O)N[C@@H](CCCNC(=N)N)C(=O)N[C@@H](CCCCN)C(=O)NC(CCC(N)=O)CC(=O)N[C@@H](CC(C)C)C(=O)N[C@@H](C)C(=O)N[C@@H](C)C(=O)N[C@H]1CNC[C@@H]1C(=O)N[C@@H](CCCCN)C(=O)N[C@@H](Cc1ccc(O)cc1)C(=O)N[C@H]1CCC[C@@H]1C(=O)N[C@@H](CC(N)=O)C(=O)N[C@@H](CC(=O)O)C(=O)N[C@@H](CC(C)C)C(=O)NC(CCCCN)CC(=O)N[C@@H](CCCCN)C(=O)NCC(=O)NCCC(=O)N[C@H](C(=O)O)[C@@H](C)O)[C@@H](C)O)[C@@H](C)O)C(C)C (stereo partly drawn) (Ac-H[X1]DA[ξβ3hV]FTE[β3hN]YTKLRK[ξβ3hQ]LAA[X2]KY[X1]NDL[ξβ3hK]KG[βAla]T-OH) | 1530 nM | 3.52 nM |
| CC(=O)N[C@@H](Cc1cnc[nH]1)C(=O)N[C@H]1CCC[C@@H]1C(=O)N[C@@H](CC(=O)O)C(=O)N[C@@H](C)C(=O)NC(CC(=O)N[C@@H](Cc1ccccc1)C(=O)N[C@H](C(=O)N[C@@H](CCC(=O)O)C(=O)N[C@@H](CC(N)=O)CC(=O)N[C@@H](Cc1ccc(O)cc1)C(=O)N[C@H](C(=O)N[C@@H](CCCCN)C(=O)N[C@@H](CC(C)C)C(=O)N[C@@H](CCCNC(=N)N)C(=O)NC(CCCCN)CC(=O)N[C@@H](CCC(N)=O)C(=O)N[C@@H](CC(C)C)C(=O)N[C@@H](C)C(=O)N[C@@H](C)C(=O)N[C@H]1CNC[C@@H]1C(=O)N[C@@H](CCCCN)C(=O)N[C@@H](Cc1ccc(O)cc1)C(=O)N[C@H]1CCC[C@@H]1C(=O)N[C@@H](CC(N)=O)C(=O)N[C@@H](CC(=O)O)C(=O)N[C@@H](CC(C)C)C(=O)NC(CCCCN)CC(=O)N[C@@H](CCCCN)C(=O)NCC(=O)NCCC(=O)N[C@H](C(=O)O)[C@@H](C)O)[C@@H](C)O)[C@@H](C)O)C(C)C (stereo partly drawn) (Ac-H[X1]DA[ξβ3hV]FTE[β3hN]YTKLR[ξβ3hK]QLAA[X2]KY[X1]NDL[ξβ3hK]KG[βAla]T-OH) | 293 nM | 1.27 nM |
| CC[C@H](C)[C@H](NC(=O)[C@H](C)NC(=O)[C@H](CC(N)=O)NC(=O)CC(CC(C)C)NC(=O)[C@H](Cc1ccc(O)cc1)NC(=O)[C@H](CCCCN)NC(=O)[C@H](CCCCN)NC(=O)CC(NC(=O)[C@H](C)NC(=O)[C@H](CC(C)C)NC(=O)[C@H](CCC(N)=O)NC(=O)CC(CCCCN)NC(=O)[C@H](CCCNC(=N)N)NC(=O)[C@H](CC(C)C)NC(=O)[C@H](CCCNC(=N)N)NC(=O)CC(NC(=O)[C@H](Cc1ccc(O)cc1)NC(=O)[C@H](CC(N)=O)NC(=O)[C@H](CC(=O)O)NC(=O)CC(NC(=O)[C@H](Cc1ccccc1)NC(=O)[C@@H](NC(=O)[C@H](C)NC(=O)CC(CC(=O)O)NC(=O)[C@H](CO)NC(=O)[C@@H](N)Cc1cnc[nH]1)C(C)C)C(C)O)C(C)O)C(C)C)C(=O)NC(CC(=O)N[C@@H](CC(N)=O)C(=O)O)CC(C)C (stereo partly drawn) (H-HS[ξβ3hD]AVF[ξβ3hT]DNY[ξβ3hT]RLR[ξβ3hK]QLA[ξβ3hV]KKY[ξβ3hL]NAI[ξβ3hL]N-OH) | > 1000 nM | > 1000 nM |

More lines, now with the values ahead:

| EC50 [1] | EC50 [2] | SMILES |
| --- | --- | --- |
| 1420 nM | 0.859 nM | CC(=O)N[C@@H](Cc1cnc[nH]1)C(=O)N[C@H]1CCC[C@@H]1C(=O)N[C@@H](CC(=O)O)C(=O)N[C@@H](C)C(=O)N[C@H](CC(=O)N[C@@H](Cc1ccccc1)C(=O)N[C@H](C(=O)N[C@@H](CCC(=O)O)C(=O)N[C@@H](CC(N)=O)CC(=O)N[C@@H](Cc1ccc(O)cc1)C(=O)N[C@H](C(=O)N[C@@H](CCCCN)C(=O)N[C@@H](CC(C)C)C(=O)N[C@@H](CCCNC(=N)N)C(=O)N[C@@H](CCCCN)C(=O)N[C@@H](CCC(N)=O)C(=O)N[C@@H](CC(C)C)C(=O)N[C@@H](C)C(=O)N[C@@H](C)C(=O)N[C@H]1CNC[C@@H]1C(=O)N[C@@H](CCCCN)C(=O)N[C@@H](Cc1ccc(O)cc1)C(=O)N[C@H]1CCC[C@@H]1C(=O)N[C@@H](CC(N)=O)C(=O)N[C@@H](CC(=O)O)C(=O)N[C@@H](CC(C)C)C(=O)NC(CCCCN)CC(=O)N[C@@H](CCCCN)C(=O)NCC(=O)NCCC(=O)N[C@H](C(=O)O)[C@@H](C)O)[C@@H](C)O)[C@@H](C)O)C(C)C (stereo partly drawn) (Ac-H[X1]DA[β3hV]FTE[β3hN]YTKLRKQLAA[X2]KY[X1]NDL[ξβ3hK]KG[βAla]T-OH) |
| > 1000 nM | 1.37 nM | CC(=O)N[C@@H](Cc1cnc[nH]1)C(=O)N[C@H]1CCC[C@@H]1C(=O)N[C@@H](CC(=O)O)C(=O)N[C@@H](C)C(=O)NC(CC(=O)N[C@@H](Cc1ccccc1)C(=O)N[C@H](C(=O)N[C@@H](CCC(=O)O)C(=O)N[C@@H](CC(N)=O)C(=O)N[C@@H](Cc1ccc(O)cc1)C(=O)N[C@H](C(=O)N[C@@H](CCCCN)C(=O)N[C@@H](CC(C)C)C(=O)NC(CCCNC(=N)N)CC(=O)N[C@@H](CCCCN)C(=O)N[C@@H](CCC(N)=O)C(=O)N[C@@H](CC(C)C)C(=O)N[C@@H](C)C(=O)N[C@@H](C)C(=O)N[C@H]1CNC[C@@H]1C(=O)N[C@@H](CCCCN)C(=O)N[C@@H](Cc1ccc(O)cc1)C(=O)N[C@H]1CCC[C@@H]1C(=O)N[C@@H](CC(N)=O)C(=O)N[C@@H](CC(=O)O)C(=O)N[C@@H](CC(C)C)C(=O)NC(CCCCN)CC(=O)N[C@@H](CCCCN)C(=O)NCC(=O)NCCC(=O)N[C@H](C(=O)O)[C@@H](C)O)[C@@H](C)O)[C@@H](C)O)C(C)C (stereo partly drawn) (Ac-H[X1]DA[ξβ3hV]FTENYTKL[ξβ3hR]KQLAA[X2]KY[X1]NDL[ξβ3hK]KG[βAla]T-OH) |
| 1420 nM | 1.33 nM | CC(=O)N[C@@H](Cc1cnc[nH]1)C(=O)N[C@H]1CCC[C@@H]1C(=O)N[C@@H](CC(=O)O)C(=O)N[C@@H](C)C(=O)NC(CC(=O)N[C@@H](Cc1ccccc1)C(=O)N[C@H](C(=O)N[C@@H](CCC(=O)O)C(=O)N[C@@H](CC(N)=O)C(=O)N[C@@H](Cc1ccc(O)cc1)C(=O)N[C@H](C(=O)N[C@@H](CCCCN)C(=O)NC(CC(=O)N[C@@H](CCCNC(=N)N)C(=O)N[C@@H](CCCCN)C(=O)N[C@@H](CCC(N)=O)C(=O)N[C@@H](CC(C)C)C(=O)N[C@@H](C)C(=O)N[C@@H](C)C(=O)N[C@H]1CNC[C@@H]1C(=O)N[C@@H](CCCCN)C(=O)N[C@@H](Cc1ccc(O)cc1)C(=O)N[C@H]1CCC[C@@H]1C(=O)N[C@@H](CC(N)=O)C(=O)N[C@@H](CC(=O)O)C(=O)N[C@@H](CC(C)C)C(=O)NC(CCCCN)CC(=O)N[C@@H](CCCCN)C(=O)NCC(=O)NCCC(=O)N[C@H](C(=O)O)[C@@H](C)O)CC(C)C)[C@@H](C)O)[C@@H](C)O)C(C)C (stereo partly drawn) (Ac-H[X1]DA[ξβ3hV]FTENYTK[ξβ3hL]RKQLAA[X2]KY[X1]NDL[ξβ3hK]KG[βAla]T-OH) |
| > 1000 nM | 1.26 nM | CC(=O)N[C@@H](Cc1cnc[nH]1)C(=O)N[C@H]1CCC[C@@H]1C(=O)N[C@@H](CC(=O)O)C(=O)N[C@@H](C)C(=O)NC(CC(=O)N[C@@H](Cc1ccccc1)C(=O)N[C@H](C(=O)N[C@@H](CCC(=O)O)C(=O)N[C@@H](CC(N)=O)CC(=O)N[C@@H](Cc1ccc(O)cc1)C(=O)N[C@H](C(=O)N[C@@H](CCCCN)C(=O)N[C@@H](CC(C)C)C(=O)N[C@@H](CCCNC(=N)N)C(=O)N[C@@H](CCCCN)C(=O)N[C@@H](CCC(N)=O)C(=O)NC(CC(=O)N[C@@H](C)C(=O)N[C@@H](C)C(=O)N[C@H]1CNC[C@@H]1C(=O)N[C@@H](CCCCN)C(=O)N[C@@H](Cc1ccc(O)cc1)C(=O)N[C@H]1CCC[C@@H]1C(=O)N[C@@H](CC(N)=O)C(=O)N[C@@H](CC(=O)O)C(=O)N[C@@H](CC(C)C)C(=O)NC(CCCCN)CC(=O)N[C@@H](CCCCN)C(=O)NCC(=O)NCCC(=O)N[C@H](C(=O)O)[C@@H](C)O)CC(C)C)[C@@H](C)O)[C@@H](C)O)C(C)C (stereo partly drawn) (Ac-H[X1]DA[ξβ3hV]FTE[β3hN]YTKLRKQ[ξβ3hL]AA[X2]KY[X1]NDL[ξβ3hK]KG[βAla]T-OH) |
